Reference: patent publication US8436040B2, “Method of treating conditions involving PPAR-receptors with indole compounds” (Laboratoires Fournier S.A., priority 2005, dated 2013)

What was measured:
db/db mice = test: db/db mouse model: serum glucose, triglyceride and cholesterol levels; format: in vivo; conditions: serum 4 hours after last gavage
Method: The test protocol is as follows:
Homozygous C57BL/Ks-db male mice (db/db mice), 11 to 13 weeks old at the start of the studies, are divided up into groups of 9-10 animals. The products are administered orally once a day for 5 days. One group of mice receives the vehicle only (0.5 or 1% methyl cellulose solution). A blood sample is taken from the retro-orbital sinus before treatment and 4 hours after the last gavage.
After centrifugation, the serum is collected and the cholesterol, triglyceride and glucose levels are measured using a multiparameter analyzer with commercial kits.
The results are expressed in % variation on the final day relative to the control group.

C2C12 cells = test: β-oxidation of 1-C14 oleate on C2C12 cells differentiated in myotubes; format: cell-based, murine; conditions: 100 μM, 48 hours incubation
Method: A second series of tests was performed with the compounds according to the invention in order to confirm the activity deduced from their affinity for the aforementioned receptors. This test consists in measuring the β-oxidation on HuH7 cells of human hepatic origin and C2C12 cells of murine muscular origin after differentiation in myotubes.
The cells are inoculated into Petri dishes containing a central well. The products are added to the culture medium and incubated for 48 hours at different concentrations. After incubation for 22 hours, C14-radiolabeled oleate (1-C14 oleate) is added to the culture medium. The β-oxidation reaction is stopped 2 hours later by the addition of 40% perchloric acid.
The CO2 liberated during the oxidation of the oleate is trapped with KOH solution and then counted.
Each test is performed three times.
The results are expressed in % variation relative to the control dishes (dishes without compounds).

[1] = 30 mg/kg orally once a day for 5 days
[2] = 100 mg/kg orally once a day for 5 days
[3] = 3 mg/kg orally once a day for 5 days

SMILES | Cholesterol, % variation on the final day relative to the control group (db/db mice; [1]) | Glucose, % variation on the final day relative to the control group (db/db mice; [1]) [%] | Triglycerides, % variation on the final day relative to the control group (db/db mice; [1]) [%] | also measured
O=C(O)CCc1cc2cc(Cl)ccc2n1S(=O)(=O)c1ccccc1 [Example 2, 5-Chloro-1-(phenylsulfonyl)-1H-indole-2-propanoic acid] | +30% | 0 | −7 | –
O=C(O)CCc1cc2cc(C(F)(F)F)ccc2n1S(=O)(=O)c1ccccc1 [Example 4, 1-(Phenylsulfonyl)-5-(trifluoromethyl)-1H-indole-2-propanoic acid] | +41% | −30 | −12 | β-oxidation, % variation relative to the control dishes (C2C12 cells): 82%
O=C(O)CCc1cc2cc(Cl)ccc2n1S(=O)(=O)c1ccc2ncsc2c1 [Example 155, 1-[(6-Benzothiazolyl)sulfonyl]-5-chloro-1H-indole-2-propanoic acid] | +38% | −35 | −41 | –
O=C(O)CCCc1cc2cc(Cl)ccc2n1S(=O)(=O)c1ccc2c(c1)OCO2 [Example 163, 1-[(1,3-Benzodioxol-5-yl)sulfonyl]-5-chloro-1H-indole-2-butanoic acid] | −15% | −38 | −35 | –
CC(OCc1cc2cc(Cl)ccc2n1S(=O)(=O)c1ccccc1)C(=O)O (stereo not shown) [Example 202, 2-[[5-Chloro-1-(phenylsulfonyl)-1H-indol-2-yl]methoxy]propanoic acid] | +25% | −52 | −48 | –
CC(C)OC(=O)C(C)(C)Oc1ccc(C(=O)c2ccc(Cl)cc2)cc1 [Fenofibrate] | – | – | – | Cholesterol, % variation on the final day relative to the control group (db/db mice; [2]): +32%; Glucose, % variation on the final day relative to the control group (db/db mice; [2]): −9%; Triglycerides, % variation on the final day relative to the control group (db/db mice; [2]): −7%
CN(CCOc1ccc(CC2SC(=O)NC2=O)cc1)c1ccccn1 (stereo not shown) [Rosiglitazone, rosiglitazone, reference compound] | – | – | – | Cholesterol, % variation on the final day relative to the control group (db/db mice; [3]): −30%; Glucose, % variation on the final day relative to the control group (db/db mice; [3]): −41%; Triglycerides, % variation on the final day relative to the control group (db/db mice; [3]): −52%
